Results on one compound are retold here after US8633251B2, “Derivatives of aminoalkanols, method of obtaining of aminoalkanols and their use” (Uniwersytet Jagiellonski, priority 2008, dated 2014).

The subject of data set [1] is hippocampal kindling seizures. Description: Electric hippocampal kindling, rats. Type of data set: in vivo. The conditions noted are these: rats, hippocampus, 0.25 h. As to the method: For some compounds, a test for proconvulsant activity was performed (TTE test), as well as a test on activity in focal seizures (related with limbic system, 6 Hz test, hippocampal kindling). […] A test on inhibiting seizures induced by sound (Frings mice) was performed for compounds 12 and 26-28. Electrophysiology tests also have been performed, for seizures induced by bicuculline, picrotoxin, and NMDA. Prevention of (pilocarpine induced) status epilepticus has been noticed.

The subject of data set [2] is neurotoxicity (rotarod). Description: Neurotoxicity test (TOX), rotarod, mice. Type of data set: in vivo. The conditions noted are these: mice, time 0.5 h. (The rotarod test checks motor coordination on a turning rod.)
The test system of data set [3] is maximal electroshock seizures. Put plainly: Maximum Electroshock Seizure (MES) test, mice. Type of data set: in vivo. The conditions noted are these: mice, time 0.5 h. The method in brief: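 Mice received compound in methylcellulose i.p. or p.o. at 30, 100 and 300 mg/kg, with some tests at 10 and 3 mg/kg. At 0.5 or 4 h, after tetracaine eye-drops, current was delivered through corneal electrodes (60 Hz, 0.2 s, 50 mA). Groups were one mouse at 30 and 300 mg/kg and three at 100 mg/kg.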

For data set [4], the system named is pilocarpine induced status epilepticus. Put plainly: Status epilepticus prevention (pilocarpine), rats. The class given is in vivo, Sprague Dawley albino rat. The conditions noted are these: i.p. The procedure: Status epilepticus prevention—an animal (Sprague Dawley albino rat male) is given a dose of tested substance. After 0, 0.25, 0.5, 1, 2, and 4 h pilocarpine is administered. The seizures induced are described by Racine's score. Compounds 27 and 28 were administered i.p. in doses 25 and 45 mg/kg b.w. respectively. […] Average body weight loss is measured 24 h after administration.

Take `CC[C@@H](CO)NCCOc1c(C)cccc1Cl` [Compound 28, S-(+)-2N-[(2-chlor-6-methylphenoxy)ethyl]amino-1-butanol]: the “ED50 (kindling, rats, hippocampus, 0.25 h)” value in data set [1] is given as 15.81 mg/kg b.w. Besides, the figures for the “TOX, No. of animals exhibiting motor impairment/no. of used animals” value in data set [2] (dose 100 mg/kg b.w.) and in data set [2] (dose 300 mg/kg b.w.) were 8/8 and 4/4, respectively. The “MES, No. of protected animals/No. of used animals” value in data set [3] (dose 30 mg/kg b.w.) and in data set [3] (dose 100 mg/kg b.w.) was 1/1 each time. The “Average weight loss ± S.E.M.” value in data set [4] (body weight loss 24 h after administration, 25 (27) or 45 (28) mg/kg b.w.) stood at 3.8 ± 5.7. The “protection in status epilepticus prevention” value in data set [4] (25 (27) and 45 (28) mg/kg b.w.) is 3 rats out of 8. In data set [4] (rats protected/tested, time 0 h, dose 25 (27) or 45 (28) mg/kg b.w.), the Protection was 3/8.
